As usually defined, the GI50 is the concentration giving 50% growth inhibition.

Test systems include HCC 2998; HCT-15; HL-60; HOP-92; HT-29; Malme-3M; NCI-H23; NCI-H522; OVCAR-4; SF-268; SF-295; SK-MEL-28; SK-MEL-2; SK-MEL-5; SN12C; UACC-257; UACC-62; SR.
Experiment in all cases: DTP human tumour cell line panel, 48 h

Molecules are shown by their SMILES.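 In this assay, cells in 96-well plates receive the compound at five concentrations for 48 hours. Endpoints are linearly interpolated between the surrounding concentrations. GI50 marks 50% less growth.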 Activity calls are given as the source filed them. Rule as the data show it: active = GI50 up to about 1.1 µM and inactive = higher.

For `CC1=NN(C(=O)c2ccc(Cl)cc2)C(=O)/C1=C/c1cccc(O)c1`, the GI50 is > 100 µM (inactive) in the assay on HCC 2998; > 100 µM in the assay with HCT-15; > 100 µM (inactive) with HL-60; > 100 µM (inactive) in the assay with HOP-92; > 100 µM (inactive) in the assay with HT-29; > 100 µM (inactive) with Malme-3M. The GI50 in the assay with NCI-H23, in the assay on NCI-H522, with OVCAR-4, in the assay on SF-268, in the assay with SF-295 and in the assay on SK-MEL-28 was > 100 µM (inactive) throughout. Further, the GI50 with SK-MEL-2, in the assay with SK-MEL-5, in the assay on SN12C, in the assay with UACC-257 and with UACC-62 was > 100 µM (inactive) each time.
For `O=C(O)C12C3C4C1C1C2C3C41I` (stereo unspecified), the GI50 with HCC 2998 is > 100 µM (inactive); with HCT-15, > 100 µM; with HL-60 it was > 100 µM (inactive); in the assay with HOP-92, > 100 µM (inactive); in the assay on HT-29 it was > 100 µM (inactive); in the assay on Malme-3M, > 100 µM (inactive). The GI50 in the assay with NCI-H23, with NCI-H522, in the assay on OVCAR-4, with SF-268, in the assay on SF-295 and with SK-MEL-28 was > 100 µM (inactive) throughout. In addition, the GI50 in the assay on SK-MEL-2, with SK-MEL-5, in the assay on SN12C, with UACC-257 and with UACC-62 was > 100 µM (inactive) in each case.
As to `CC(=O)NC(CCCNC(=O)OCc1ccccc1)C(=O)NCc1ccccc1` (stereo unspecified), the GI50 with HCC 2998 was > 100 µM (inactive); in the assay on HCT-15, > 100 µM; in the assay on HOP-92 it was > 100 µM (inactive); with HT-29 it was > 100 µM (inactive); in the assay on Malme-3M it was > 100 µM (inactive); with NCI-H23, > 100 µM (inactive). Also, the GI50 with NCI-H522, with OVCAR-4, in the assay on SF-268, in the assay on SF-295, in the assay on SK-MEL-28 and in the assay on SK-MEL-2 was > 100 µM (inactive) in each case. Moreover, the GI50 in the assay with SK-MEL-5, in the assay on SN12C, with UACC-257 and with UACC-62 was > 100 µM (inactive) in each case.
`CNC(=O)N(CCCC(NC(C)=O)C(=O)NCc1ccccc1)Cc1ccccc1` (stereo unspecified): the GI50 in the assay on HCC 2998 is > 100 µM (inactive); in the assay with HCT-15, > 100 µM; in the assay on HOP-92, > 100 µM (inactive); in the assay on HT-29, > 100 µM (inactive); in the assay with Malme-3M, > 100 µM (inactive); with NCI-H23 it was > 100 µM (inactive). Moreover, the GI50 with NCI-H522, in the assay with OVCAR-4, with SF-268, in the assay with SF-295, in the assay with SK-MEL-28 and with SK-MEL-2 was > 100 µM (inactive) throughout. In addition, the GI50 in the assay with SK-MEL-5, in the assay with SN12C, in the assay on UACC-257 and in the assay on UACC-62 was > 100 µM (inactive) in each case.
Take `Cc1cc(C)c2c(c1C)CN1CN2Cc2c(C)c(C)cc(C)c21`: the GI50 in the assay with HCT-15 was 20.4 µM; in the assay on HL-60, 11.4 µM (inactive); in the assay on HOP-92, 67.1 µM (inactive); in the assay on HT-29 it was 44.4 µM (inactive); in the assay on Malme-3M, > 100 µM (inactive); in the assay on NCI-H23, 6.84 µM (inactive). The GI50 in the assay with NCI-H522 was > 100 µM (inactive); with OVCAR-4, 7.98 µM (inactive); in the assay on SF-268, > 100 µM (inactive); with SF-295 it was > 100 µM (inactive); with SK-MEL-28, > 100 µM (inactive); in the assay with SN12C it was > 100 µM (inactive). The GI50 in the assay on SR and in the assay on UACC-62 was > 100 µM (inactive) throughout.
For the compound `O=S(=O)(N/N=C\c1c2ccccc2[n+]([O-])c2ccccc12)c1ccc(Cl)cc1`, the GI50 in the assay on HCC 2998 was > 100 µM (inactive); in the assay on HCT-15 it was > 100 µM; with HL-60, > 100 µM (inactive); with HOP-92, > 100 µM (inactive); in the assay with HT-29, > 100 µM (inactive); in the assay with Malme-3M it was 53.1 µM (inactive). The GI50 is 85.5 µM (inactive) in the assay with NCI-H23; 93.8 µM (inactive) in the assay with NCI-H522; 33.3 µM (inactive) with OVCAR-4; > 100 µM (inactive) in the assay on SF-268; 66.4 µM (inactive) with SF-295; > 100 µM (inactive) with SK-MEL-28. Further, the GI50 in the assay with SK-MEL-2 is 46.1 µM (inactive); in the assay with SK-MEL-5, > 100 µM (inactive); in the assay on SN12C, > 100 µM (inactive); with UACC-257, > 100 µM (inactive); in the assay on UACC-62, > 100 µM (inactive).
For `S=c1c2ccccc2c(=S)n2n1CC=CC2`, the GI50 is > 100 µM (inactive) with HCC 2998; > 100 µM in the assay on HCT-15; > 100 µM (inactive) in the assay on HL-60; > 100 µM (inactive) in the assay with HOP-92; > 100 µM (inactive) in the assay with HT-29; > 100 µM (inactive) with Malme-3M. The GI50 in the assay with NCI-H23 is > 100 µM (inactive); in the assay with NCI-H522, 75.7 µM (inactive); with OVCAR-4, > 100 µM (inactive); in the assay on SF-268, > 100 µM (inactive); with SF-295 it was > 100 µM (inactive); in the assay with SK-MEL-28, > 100 µM (inactive). In addition, the GI50 in the assay on SK-MEL-2, in the assay on SK-MEL-5, in the assay with SN12C, in the assay with UACC-257 and in the assay on UACC-62 was > 100 µM (inactive) each time.
As to `CCCCCCc1cc2c(C)c(C)c(=O)oc2cc1OCCCOc1cc2oc(=O)c(C)c(C)c2cc1CCCCCC`, the GI50 in the assay with HCT-15 was > 100 µM; with HL-60, > 100 µM (inactive); with HOP-92 it was > 100 µM (inactive); in the assay with HT-29, > 100 µM (inactive); in the assay on Malme-3M, > 100 µM (inactive); in the assay on NCI-H23, > 100 µM (inactive). The GI50 with NCI-H522, in the assay on SF-268, in the assay with SF-295, in the assay on SK-MEL-28, in the assay with SK-MEL-2 and in the assay on SK-MEL-5 was > 100 µM (inactive) in each case. Besides, the GI50 with SR, with UACC-257 and in the assay with UACC-62 was > 100 µM (inactive) in each case.
With `Cc1cc(=O)oc2c1cc(OCC(=O)OCCN1CCCCC1)c1occ(C)c12`, the GI50 in the assay on HCC 2998 was > 100 µM (inactive); with HCT-15 it was > 100 µM; in the assay on HL-60, > 100 µM (inactive); with HOP-92, > 100 µM (inactive); in the assay with HT-29, > 100 µM (inactive); in the assay with Malme-3M, > 100 µM (inactive). Further, the GI50 in the assay with NCI-H23, in the assay on OVCAR-4, in the assay on SF-295, in the assay on SK-MEL-28, in the assay on SK-MEL-2 and in the assay with SK-MEL-5 was > 100 µM (inactive) throughout. Moreover, the GI50 in the assay with SN12C, with UACC-257 and in the assay on UACC-62 was > 100 µM (inactive) in each case.
Consider `N#CC1CCCCC1NC1(C#N)CCCCC1` (stereo unspecified), for which the GI50 in the assay with HCC 2998 was > 100 µM (inactive); in the assay with HCT-15 it was > 100 µM; with HL-60, > 100 µM (inactive); in the assay with HT-29 it was > 100 µM (inactive); in the assay with Malme-3M it was > 100 µM (inactive); with NCI-H23, > 100 µM (inactive). Also, the GI50 with NCI-H522, in the assay with SF-268, in the assay with SF-295, in the assay on SK-MEL-28, with SK-MEL-2 and in the assay on SK-MEL-5 was > 100 µM (inactive) in each case. The GI50 in the assay on SN12C, in the assay on UACC-257 and with UACC-62 was > 100 µM (inactive) each time.
`CC(NS(=O)(=O)c1ccc(Cl)cc1)C(=O)O` (stereo unspecified): the GI50 in the assay on HCT-15 is > 100 µM; with HL-60, > 100 µM (inactive); with HOP-92, > 100 µM (inactive); in the assay with HT-29, > 100 µM (inactive); in the assay on Malme-3M, > 100 µM (inactive); in the assay on NCI-H23, > 100 µM (inactive). In addition, the GI50 in the assay with NCI-H522, with OVCAR-4, in the assay on SF-268, in the assay with SF-295, with SK-MEL-28 and in the assay with SK-MEL-2 was > 100 µM (inactive) each time. Moreover, the GI50 in the assay with SK-MEL-5, in the assay on SN12C, in the assay with UACC-257 and with UACC-62 was > 100 µM (inactive) each time.
Take `NC(=O)COc1ccc(Br)cc1Br`: the GI50 with HCT-15 is > 100 µM; in the assay with HL-60, > 100 µM (inactive); in the assay with HOP-92, > 100 µM (inactive); in the assay with HT-29, > 100 µM (inactive); with Malme-3M, > 100 µM (inactive); with NCI-H23, > 100 µM (inactive). In addition, the GI50 in the assay with NCI-H522, in the assay on SF-268, with SF-295, in the assay with SK-MEL-28, in the assay with SK-MEL-2 and with SK-MEL-5 was > 100 µM (inactive) each time. Also, the GI50 in the assay on SN12C, in the assay on SR and in the assay on UACC-257 was > 100 µM (inactive) each time.
In the case of `CSc1ccc2c(cc1=O)[C@@H](NC(=O)c1cc(O)c(O)c(O)c1)CCc1cc(O)c(O)c(O)c1-2`, the GI50 was > 100 µM (inactive) with HCC 2998; 20.2 µM in the assay with HCT-15; 16.8 µM (inactive) with HL-60; 24 µM (inactive) with HT-29; 30 µM (inactive) in the assay with Malme-3M; 20 µM (inactive) in the assay with NCI-H23. The GI50 with NCI-H522 is 21.4 µM (inactive); in the assay with OVCAR-4, 8.93 µM (inactive); with SF-268, 37.4 µM (inactive); in the assay on SF-295, 23.7 µM (inactive); in the assay on SK-MEL-28, 32.3 µM (inactive); with SK-MEL-5 it was 19.8 µM (inactive). The GI50 in the assay with SN12C is 18.1 µM (inactive); in the assay with SR, 18.6 µM (inactive); with UACC-257, 18 µM (inactive); in the assay on UACC-62, 19.2 µM (inactive).

The values are drawn from ChEMBL document CHEMBL1201862, “PubChem BioAssay data set” (2004).
